In US8840866B2, “Styrylpyridine derivatives and their use for binding and imaging amyloid plaques” (The Trustees of the University of Pennsylvania, priority 2006, dated 2014):

Columns and labels:
[1] = test system: Aβ plaques; experiment: Film autoradiography of postmortem AD brain sections; assay type: binding, human
Protocol: [^18F]tracers: Brain sections from AD subjects were obtained by freezing the brain in powdered dry ice and cut into 20 micrometer-thick sections. The sections were incubated with [^18F]tracers (200,000-250,000 cpm/200 μl) for 1 hr at room temperature. The sections were then dipped in saturated Li2CO3 in 40% EtOH (two two-minute washes) and washed with 40% EtOH (one two-minute wash) followed by rinsing with water for 30 sec. After drying, the ^18F-labeled sections were exposed to Kodak MR film overnight.

[2] = target: amyloid plaques in AD brain homogenates (Homo sapiens, UniProt P05067); conditions: displacement of 125I-IMPY binding
Protocol: Values represent potencies (Ki) of compounds for displacement of ^125I-IMPY binding to amyloid plaques in AD brain homogenates.
Competition binding assays were carried out in 12×75 mm borosilicate glass tubes. The reaction mixture contained 50 μl of pooled AD brain homogenates (20-50 μg), 50 μl of [^125I]IMPY (0.04-0.06 nM diluted in PBS) and 50 μl of inhibitors (10^−5-10^10 M diluted serially in PBS containing 0.1% bovine serum albumin) in a final volume of 1 ml. Nonspecific binding was defined in the presence of 600 nM IMPY in the same assay tubes. The mixture was incubated at 37° C. for 2 h and the bound and the free radioactivity were separated by vacuum filtration through Whatman GF/B filters using a Brandel M-24R cell harvester followed by 2×3 ml washes of PBS at room temperature. Filters containing the bound 1-125 ligand were counted in a gamma counter (Packard 5000) with 70% counting efficiency. Under the assay conditions, the specifically bound fraction was less than 15% of the total radioactivity. The results of inhibition experiments were subjected to nonlinear regression analysis using equilibrium binding data analysis from which Ki values were calculated.

[3] = target: fibrillar Aβ aggregates (Homo sapiens, UniProt P05067); conditions: Mathis et al. 1997; read-out: inhibition constants (Ki) for binding to fibrillar Aβ aggregates; cited from earlier work
Sequence of fibrillar Aβ aggregates (P05067 672-711 limits assumed): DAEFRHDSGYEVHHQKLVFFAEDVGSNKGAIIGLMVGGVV

[4] = Organ distribution in normal ICR mice after iv injection of radiolabeled tracer; assay type: in vivo; conditions: 5% EtOH in saline
Protocol: The mice (n=3 for each time point) were sacrificed by cervical dislocation at designated time-points post injection. The organs of interest were removed and weighed, and the radioactivity was counted with an automatic gamma counter. The percentage dose per organ was calculated by a comparison of the tissue counts to suitably diluted aliquots of the injected material. The total activity of the blood was calculated under the assumption that it is 7% of the total body weight. The % dose/g of samples was calculated by comparing the sample counts with the count of the diluted initial dose.

[5] = test system: pooled AD and control brain tissue homogenates; experiment: Specific binding of [18F]2 to pooled AD and control brain tissue homogenates; parameters: species or system human
Excerpt: FIG. 8 depicts specific binding of [^18F]2 to pooled AD and control brain tissue homogenates. Gray and white matters were dissected from the cortical regions. […] The values presented are the mean±SEM of six measurements.

[6] = 2 min, second organ list r16-r25
[7] = 30 min, first organ list r6-r15
[8] = 30 min, second organ list r16-r25
[9] = 1 hr, second organ list r16-r25
[10] = 2 hr, second organ list r16-r25

Sequence of amyloid plaques in AD brain homogenates (P05067 672-711): as the sequence (P05067 672-711 limits assumed) above

## CN(C)c1ccc(/C=C/c2ccc(OCCOCCOCCF)nc2)cc1 [Compound 2, (E)-2-(2-(2-(2-fluoroethoxy)ethoxy)ethoxy)-5-(4-dimethylaminostyryl)pyridine]
[1]
  autoradiography result: confirmed the specific binding related to the presence of Aβ plaques
[2]
  Ki: 2.5 ± 0.4 nM

## O=C(O)c1cc(/N=N/c2ccc(-c3ccc(/N=N/c4ccc(O)c(C(=O)O)c4)cc3)cc2)ccc1O [CG, chrysamine-G]
[3]
  Ki: 370 nM

## CN(C)c1ccc(/C=C/c2ccc(OCCOCCOCCF)nc2)cc1 [[^18F]2, (E)-2-(2-(2-(2-fluoroethoxy)ethoxy)ethoxy)-5-(4-dimethylaminostyryl)pyridine]
[4]; 2 min, first organ list r6-r15
  Biodistribution: Blood: 6.05 ± 0.33 % dose/g
  Biodistribution: Bone: 5.97 ± 0.56 % dose/g
  Biodistribution: Brain: 3.49 ± 0.58 % dose/g
  Biodistribution: Heart: 0.75 ± 0.14 % dose/g
  Biodistribution: Kidney: 6.38 ± 0.95 % dose/g
  Biodistribution: Liver: 24.90 ± 1.49 % dose/g
  Biodistribution: Lung: 1.07 ± 0.20 % dose/g
  Biodistribution: Muscle: 7.03 ± 1.30 % dose/g
  Biodistribution: Skin: 2.52 ± 0.24 % dose/g
  Biodistribution: Spleen: 0.43 ± 0.11 % dose/g
[4]; [6]
  Biodistribution: Blood: 3.04 ± 0.29 % dose/g
  Biodistribution: Bone: 1.49 ± 0.08 % dose/g
  Biodistribution: Brain: 7.77 ± 1.34 % dose/g
  Biodistribution: Kidney: 14.19 ± 2.34 % dose/g
  Biodistribution: Liver: 17.00 ± 0.69 % dose/g
  Biodistribution: Lung: 5.65 ± 0.89 % dose/g
  Biodistribution: Muscle: 0.62 ± 0.10 % dose/g
  Biodistribution: Skin: 0.59 ± 0.03 % dose/g
  Biodistribution: Spleen: 4.65 ± 0.76 % dose/g
[4]; [7]
  Biodistribution: Blood: 2.65 ± 0.22 % dose/g
  Biodistribution: Bone: 2.52 ± 0.34 % dose/g
  Biodistribution: Brain: 0.48 ± 0.07 % dose/g
  Biodistribution: Heart: 0.17 ± 0.03 % dose/g
  Biodistribution: Kidney: 1.68 ± 0.11 % dose/g
  Biodistribution: Liver: 9.26 ± 0.83 % dose/g
  Biodistribution: Lung: 0.30 ± 0.01 % dose/g
  Biodistribution: Muscle: 8.58 ± 0.26 % dose/g
  Biodistribution: Skin: 3.99 ± 0.34 % dose/g
  Biodistribution: Spleen: 0.15 ± 0.05 % dose/g
[4]; [8]
  Biodistribution: Blood: 1.33 ± 0.16 % dose/g
  Biodistribution: Bone: 0.63 ± 0.12 % dose/g
  Biodistribution: Brain: 1.03 ± 0.11 % dose/g
  Biodistribution: Heart: 1.28 ± 0.16 % dose/g
  Biodistribution: Kidney: 3.77 ± 0.36 % dose/g
  Biodistribution: Liver: 7.21 ± 0.69 % dose/g
  Biodistribution: Lung: 1.73 ± 0.17 % dose/g
  Biodistribution: Muscle: 0.75 ± 0.04 % dose/g
  Biodistribution: Skin: 0.93 ± 0.13 % dose/g
  Biodistribution: Spleen: 1.57 ± 0.51 % dose/g
[4]; 1 hr, first organ list r6-r15
  Biodistribution: Blood: 3.48 ± 0.47 % dose/g
  Biodistribution: Bone: 4.39 ± 0.40 % dose/g
  Biodistribution: Brain: 0.55 ± 0.10 % dose/g
  Biodistribution: Heart: 0.22 ± 0.03 % dose/g
  Biodistribution: Kidney: 1.96 ± 0.21 % dose/g
  Biodistribution: Liver: 10.52 ± 2.18 % dose/g
  Biodistribution: Lung: 0.35 ± 0.07 % dose/g
  Biodistribution: Muscle: 10.62 ± 2.59 % dose/g
  Biodistribution: Skin: 4.42 ± 0.65 % dose/g
  Biodistribution: Spleen: 0.13 ± 0.03 % dose/g
[4]; [9]
  Biodistribution: Blood: 1.80 ± 0.16 % dose/g
  Biodistribution: Bone: 1.13 ± 0.01 % dose/g
  Biodistribution: Brain: 1.28 ± 0.20 % dose/g
  Biodistribution: Heart: 1.66 ± 0.24 % dose/g
  Biodistribution: Kidney: 4.29 ± 0.52 % dose/g
  Biodistribution: Liver: 8.13 ± 1.42 % dose/g
  Biodistribution: Lung: 1.82 ± 0.31 % dose/g
  Biodistribution: Muscle: 0.95 ± 0.18 % dose/g
  Biodistribution: Skin: 1.06 ± 0.09 % dose/g
  Biodistribution: Spleen: 1.56 ± 0.17 % dose/g
[4]; 2 hr, first organ list r6-r15
  Biodistribution: Blood: 2.15 ± 0.25 % dose/g
  Biodistribution: Bone: 6.49 ± 0.08 % dose/g
  Biodistribution: Brain: 0.37 ± 0.08 % dose/g
  Biodistribution: Heart: 0.18 ± 0.08 % dose/g
  Biodistribution: Kidney: 0.96 ± 1.58 % dose/g
  Biodistribution: Liver: 6.86 ± 0.59 % dose/g
  Biodistribution: Lung: 0.20 ± 0.36 % dose/g
  Biodistribution: Muscle: 5.96 ± 0.06 % dose/g
  Biodistribution: Skin: 2.91 ± 0.16 % dose/g
  Biodistribution: Spleen: 0.10 ± 0.17 % dose/g
[4]; [10]
  Biodistribution: Blood: 1.08 ± 0.06 % dose/g
  Biodistribution: Bone: 1.64 ± 0.50 % dose/g
  Biodistribution: Brain: 0.84 ± 0.08 % dose/g
  Biodistribution: Heart: 1.32 ± 0.33 % dose/g
  Biodistribution: Kidney: 2.19 ± 0.36 % dose/g
  Biodistribution: Liver: 4.96 ± 0.90 % dose/g
  Biodistribution: Lung: 0.98 ± 0.08 % dose/g
  Biodistribution: Muscle: 0.52 ± 0.08 % dose/g
  Biodistribution: Skin: 0.68 ± 0.16 % dose/g
  Biodistribution: Spleen: 1.14 ± 0.18 % dose/g
[5]; AD brain homogenates, gray matter
  specific binding: High specific binding
[5]; AD brain, white matter homogenates
  specific binding: Relatively low binding
[5]; control brain homogenates, grey or white matter
  specific binding: significantly lower specific binding
